Measured values published in US4622386A, “[1,7-di-alanine]calcitonin” (Armour Pharmaceutical Company, priority 1985, dated 1986).

Legend:
[1] = system: serum calcium concentration; settings: standard used in the rat serum calcium assay; cited from earlier work
[2] = system: serum calcium concentration; experiment: Biological assay of calcitonin analogs in vivo: reduction of serum calcium concentration, 2×2 parallel line assay; settings: rats, subcutaneous injection, blood withdrawn 1 hour later
Protocol: Biological Assay Of Calcitonin Analogs In Vivo
The biological potency of [Di-Ala^1,7 ]salmon calcitonin was determined by comparing the reduction of serum calcium concentration which followed administration by graded doses of [Di-Ala^1,7 ]SCT and synthetic salmon calcitonin standard. Rats were divided into four groups of seven animals, and each group was assigned at random to a dose of standard or test solution. Low and high doses were chosen from the linear portion of the dose-responsive curve. For the salmon calcitonin standard, the values were 0.7 and 2.1 mcg. peptide/100 g. body weight (BW). This dose approximates 3 and 9 MU/100 g. BW. Peptides were given by subcutaneous injection (0.2 ml/100 g. BW) and blood was withdrawn 1 hour later for serum calcium determination. Sera are processed and analyzed within two hours of collection. […]. Results were analyzed by a 2×2 parallel line assay [Gaddum, J. H., J. Pharm. Pharmacol., 6, 345 (1953)]. The standard salmon calcitonin used was independently determined to contain greater than 4,000 IU/mg. [Di-Ala^1,7 ]SCT assayed at 5550 IU/mg.

Substance	potency of the standard salmon calcitonin, independently determined [1]	biological potency (reduction of serum calcium concentration vs synthetic salmon calcitonin standard) [2]
Salmon calcitonin [standard salmon calcitonin]	greater than 4,000 IU/mg	
[1,7-Di-Alanine)]salmon calcitonin [[Di-Ala^1,7]SCT]		5550 IU/mg
